# In patent publication US20260285850A1, “SUBSTITUTED OXAZOLIDINONES AND IMIDAZOLINONES AS HERBICIDES” (FMC CORPORATION, priority 2023, published 2026):
# Tests used:
# Format in all cases: in vivo
# [1] = test system: ducksalad (Heteranthera limosa); assay: Test B flooded paddy test, visual plant response rating 0-100; conditions: 250 g ai/ha, Flood, applied to paddy water, evaluated after 13 days
# How it was run: (§1)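 Each species was raised to two leaves before flooding to a 3 cm depth and dosing the water with compound. Injury was assessed by eye after 13 days under greenhouse conditions.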
# [2] = test system: sedge, umbrella (small-flower umbrella sedge, Cyperus difformis); assay: as above; conditions: 250 g ai/ha, Flood, applied to paddy water, evaluated after 13 days
# How it was run: as §1
# [3] = test system: barnyardgrass (Echinochloa crusgalli); assay: as above; conditions: 250 g ai/ha, Flood, applied to paddy water, evaluated after 13 days
# How it was run: as §1
# rice (Oryza sativa) = assay: as above; conditions: 250 g ai/ha, Flood, applied to paddy water, evaluated after 13 days
# How it was run: as §1
# [4] = test system: green foxtail (Setaria viridis); assay: Test A preemergence soil spray, visual injury rating 0-100; conditions: 10 days
# How it was run: (§2)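 Preemergence directed soil spray or postemergence spray (2-10 cm, 1-2 leaf); loam/sand mix; compound in non-phytotoxic solvent + surfactant. Greenhouse, 10 d. Visual injury vs untreated, 0 = none, 100 = complete control.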
# corn (Zea mays) [5] = assay: as above; conditions: 10 days
# How it was run: as §2
# soybean (Glycine max) [6] = assay: as above; conditions: 10 days
# How it was run: as §2
# kochia (Bassia scoparia) [7] = assay: as above; conditions: 10 days
# How it was run: as §2
# [8] = test system: oat, wild (wild oat, Avena fatua); assay: as above; conditions: 10 days
# How it was run: as §2
# [9] = test system: barnyardgrass (Echinochloa crus-galli); assay: as above; conditions: 10 days
# How it was run: as §2
# [10] = test system: ryegrass, Italian (italian ryegrass, Lolium multiflorum); assay: as above; conditions: 10 days
# How it was run: as §2
# [11] = test system: wheat (Triticum aestivum); assay: as above; conditions: 10 days
# How it was run: as §2
# [12] = test system: blackgrass (Alopecurus myosuroides); assay: as above; conditions: 10 days
# How it was run: as §2
# [13] = test system: ragweed (common ragweed, Ambrosia artemisiifolia); assay: as above; conditions: 10 days
# How it was run: as §2
# [14] = test system: green foxtail (Setaria viridis); assay: Test A postemergence application, visual injury rating 0-100
# How it was run: as §2
# [15] = test system: galium (catchweed bedstraw, Galium aparine); assay: as above
# How it was run: as §2
# corn (Zea mays) [16] = assay: as above
# How it was run: as §2
# soybean (Glycine max) [17] = assay: as above
# How it was run: as §2
# kochia (Bassia scoparia) [18] = assay: as above
# How it was run: as §2
# [19] = test system: oat, wild (wild oat, Avena fatua); assay: as above
# How it was run: as §2
# [20] = test system: horseweed (Erigeron canadensis); assay: as above
# How it was run: as §2
# [21] = test system: barnyardgrass (Echinochloa crus-galli); assay: as above
# How it was run: as §2
# [22] = test system: ryegrass, Italian (italian ryegrass, Lolium multiflorum); assay: as above
# How it was run: as §2
# [23] = test system: wheat (Triticum aestivum); assay: as above
# How it was run: as §2
# [24] = test system: blackgrass (Alopecurus myosuroides); assay: as above
# How it was run: as §2
# [25] = test system: ragweed (common ragweed, Ambrosia artemisiifolia); assay: as above
# How it was run: as §2
# [26] = test system: palmer (palmer amaranth, palmer pigweed, Amaranthus palmeri); assay: as above
# How it was run: as §2
# [27] = 62 g ai/ha, 0 = no effect, 100 = complete control
# [28] = 62 g ai/ha, postemergence, 10 days, 0 = no effect, 100 = complete control
# [29] = Postemergence, 16 g ai/ha, greenhouse 10 days, 0 no effect, 100 complete control
compound,measurement,setting,value
CCOC(=O)C1=CCC(NC(=O)C2(C)CN(c3cc(F)cc(Cl)c3)C(=O)O2)C1 (centres unmarked) [Compound 134],"Plant response rating, Ducksalad (0 to 100 scale, 0 is no effect and 100 is complete control)",[1],0
same,"Plant response rating, Sedge, Umbrella (0 to 100 scale, 0 is no effect and 100 is complete control)",[2],0
same,"Plant response rating, Barnyardgrass (0 to 100 scale, 0 is no effect and 100 is complete control)",[3],0
same,"Plant response rating, Rice (0 to 100 scale, 0 is no effect and 100 is complete control)",rice (Oryza sativa),0
same,"Foxtail, Green plant response rating","[4]; 16 g ai/ha, 0 to 100 scale",0
same,"Foxtail, Green plant response rating (0-100)",[4]; [27],0
same,Corn plant response rating,"corn (Zea mays) [5]; 16 g ai/ha, 0 to 100 scale",0
same,Corn plant response rating (0-100),corn (Zea mays) [5]; [27],0
same,Soybean plant response rating,"soybean (Glycine max) [6]; 16 g ai/ha, 0 to 100 scale",0
same,Soybean plant response rating (0-100),soybean (Glycine max) [6]; [27],0
same,Kochia plant response rating,"kochia (Bassia scoparia) [7]; 16 g ai/ha, 0 to 100 scale",0
same,Kochia plant response rating (0-100),kochia (Bassia scoparia) [7]; [27],0
same,"Oat, Wild plant response rating","[8]; 16 g ai/ha, 0 to 100 scale",0
same,"Oat, Wild plant response rating (0-100)",[8]; [27],0
same,Barnyardgrass plant response rating,"[9]; 16 g ai/ha, 0 to 100 scale",0
same,Barnyardgrass plant response rating (0-100),[9]; [27],0
same,"Ryegrass, Italian plant response rating","[10]; 16 g ai/ha, 0 to 100 scale",0
same,"Ryegrass, Italian plant response rating (0-100)",[10]; [27],0
same,Wheat plant response rating,"[11]; 16 g ai/ha, 0 to 100 scale",0
same,Wheat plant response rating (0-100),[11]; [27],0
same,Blackgrass plant response rating,"[12]; 16 g ai/ha, 0 to 100 scale",0
same,Blackgrass plant response rating (0-100),[12]; [27],30
same,Ragweed plant response rating,"[13]; 16 g ai/ha, 0 to 100 scale",0
same,Ragweed plant response rating (0-100),[13]; [27],0
same,"Foxtail, Green plant response rating (0-100)",[14]; [28],0
same,"Foxtail, Green plant response rating (0 to 100 scale)",[14]; [29],0
same,Galium plant response rating (0-100),[15]; [28],0
same,Galium plant response rating (0 to 100 scale),[15]; [29],0
same,Corn plant response rating (0-100),corn (Zea mays) [16]; [28],0
same,Corn plant response rating (0 to 100 scale),corn (Zea mays) [16]; [29],0
same,Soybean plant response rating (0-100),soybean (Glycine max) [17]; [28],0
same,Soybean plant response rating (0 to 100 scale),soybean (Glycine max) [17]; [29],0
same,Kochia plant response rating (0-100),kochia (Bassia scoparia) [18]; [28],0
same,Kochia plant response rating (0 to 100 scale),kochia (Bassia scoparia) [18]; [29],0
same,"Oat, Wild plant response rating (0-100)",[19]; [28],0
same,"Oat, Wild plant response rating (0 to 100 scale)",[19]; [29],0
same,Horseweed plant response rating (0-100),[20]; [28],0
same,Horseweed plant response rating (0 to 100 scale),[20]; [29],0
same,Barnyardgrass plant response rating (0-100),[21]; [28],0
same,Barnyardgrass plant response rating (0 to 100 scale),[21]; [29],0
same,"Ryegrass, Italian plant response rating (0-100)",[22]; [28],0
same,"Ryegrass, Italian plant response rating (0 to 100 scale)",[22]; [29],0
same,Wheat plant response rating (0-100),[23]; [28],0
same,Wheat plant response rating (0 to 100 scale),[23]; [29],0
same,Blackgrass plant response rating (0-100),[24]; [28],0
same,Blackgrass plant response rating (0 to 100 scale),[24]; [29],0
same,Ragweed plant response rating (0-100),[25]; [28],0
same,Ragweed plant response rating (0 to 100 scale),[25]; [29],0
same,"Pigweed, Palmer plant response rating (0-100)",[26]; [28],0
same,"Pigweed, Palmer plant response rating (0 to 100 scale)",[26]; [29],0
